Several values for one entry are separate records, joined by “and”; a condition that tells them apart may be missing. Equal entries are not always repeated. Where two headings read alike, the source gives them in different places.
Key:
EMRSA-15 = test: Broth microdilution MIC; format: cell-based
Procedure: (§1) Assays were carried out by a broth microdilution method using a 96-well plate according to guidelines defined by the European Committee on Antimicrobial Susceptibility Testing as described here. Overnight cultures of strains were grown in tryptic soy broth (TSB) at 37° C. The overnight cultures were diluted to a concentration of 1×10^6 bacteria/ml (OD600=0.01) in TSB media. To each well on 96 well plates, 100 μl of bacterially infected media at a concentration of 1×10^6/ml and compounds at various concentrations were added. An uninfected control (i.e. no bacteria) was also included. The plates were incubated at 37° C. wrapped in parafilm for 20 hrs. The growth was assessed by measuring the absorbance at 600 nm. The minimum inhibitory concentration (MIC) was determined to be the lowest concentration of compound that inhibits visible bacterial growth.

A. thaliana seedlings = test: In planta seedling development and root length on GM/MS media; format: in vivo; conditions: for Normalised root / Root Length: individual plants 1-20; for seedling development: concentrations 125 μM and higher; for development and growth of A. thaliana (leaves): highest concentrations tested
Procedure: Gamborg modified/Murashige Skoog (GM/MS) media and soil were prepared as according to Table 6.
A. thaliana seeds were sterilised including a 15 min wash step in 10% (v/v) commercial bleach without the addition of detergents. All plants were grown in a controlled environment room (CER) at 22±5° C. with 16 hrs: 8 hrs light: dark, 50-60% humidity under cool-white fluorescent light. Plants grown on soil were regularly watered and relocated within the CER.
Basta was employed as a positive control at a final recommended concentration of 10 μg/mL (50 μM). Negative controls included 0% (v/v) DMSO (H2O) and 1% (v/v) DMSO (vehicle). Media was poured into 100 mL plates and allowed to set before adding 20 sterilised seeds per plate. Seeds were then stratified at 4° C. for 72 hrs in a dark room prior to relocation into a CER.
The resulting growth plates were monitored daily and allowed to grow in an upright position for up to 14 days post stratification to determine the average root length using ImageJ analysis. Experiments were carried out in triplicates. Results were statistically validated using t-tests employing GraphPad Prism.

A. thaliana DHDPS = tested on: T1, A. thaliana DHDPS; test: DHDPS-DHDPR coupled assay, dose response inhibitor assay; format: biochemical, Arabidopsis thaliana
T1 construct: AtDHDPS|10|0.00008; no borders, domain or tags given
Procedure: DHDPS enzyme activity was determined using the coupled assay in a Cary 4000 UV/Vis spectrophotometer at 340 nm in 1 cm acrylic cuvettes. A master mix was prepared for each reaction as per Table 1. Reaction mixtures containing enzymes, pyruvate, buffer and NADPH were incubated at 30° C. for 12 mins before the addition of ASA to initiate the reaction. The oxidation of NADPH to NADP^+ was then monitored at 340 nm at 30° C. as a function of time. The initial rate (ΔA340·min^−1) was calculated from the slope of the linear portion of the A340 versus time profile. All experiments were carried out in triplicate. The enzyme kinetic parameters, including KM values, were determined using the Michaelis-Menten equation (Equation 1). Unless otherwise stated, all kinetic data were fitted using the built-in equations in GraphPad Prism.
To determine/C50 values for the inhibitors, A. thaliana DHDPS enzyme activity was measured using the coupled assay (detailed above) in the presence of increasing concentrations of inhibitor. The initial rate was then plotted as a function of the log 10 of the inhibitor concentration and the/C50 determined according to Equation 2.

[1] = tested on: Gram-positive and Gram-negative bacterial species; test: Broth microdilution MIC, panel summary; format: cell-based; conditions: read-out: MIC values
Procedure: as §1

[2] = EMRSA-15, replicate 1, read-out: MIC #1
[3] = EMRSA-15, replicate 2, read-out: MIC #2
[4] = EMRSA-15, replicate 3, read-out: MIC #3

Row | Compound | MIC (EMRSA-15; [2]) [µg/mL] | MIC (EMRSA-15; [3]) [µg/mL] | MIC (EMRSA-15; [4]) [µg/mL] | Normalised root (A. thaliana seedlings; 15.6 μM in GM/MS media) | Root Length (A. thaliana seedlings; 15.6 μM in GM/MS media) | Normalised root (A. thaliana seedlings; 31.3 μM in GM/MS media) | Root Length (A. thaliana seedlings; 31.3 μM in GM/MS media) | Normalised root (A. thaliana seedlings; 62.5 μM in GM/MS media) | Root Length (A. thaliana seedlings; 62.5 μM in GM/MS media) | Normalised root (A. thaliana seedlings; 125 μM in GM/MS media) | Root Length (A. thaliana seedlings; 125 μM in GM/MS media) | Normalised root (A. thaliana seedlings; 250 μM in GM/MS media) | Root Length (A. thaliana seedlings; 250 μM in GM/MS media) | Normalised root (A. thaliana seedlings; 500 μM in GM/MS media) | Root Length (A. thaliana seedlings; 500 μM in GM/MS media) | seedling development (A. thaliana seedlings) | development and growth of A. thaliana (leaves) (A. thaliana seedlings) | IC50 (A. thaliana DHDPS) [µM] | MIC [1] [µg/mL]
1 | COc1ccccc1/C=C1\SC(=O)N(CC(=O)O)C1=O [Compound 3, (Z)-2-(5-(2-Methoxybenzylidene)-2,4-dioxothiazolidin-3-yl)acetic Acid] | > 64 | > 64 | > 64 | 126.8 and 79.33 and 8.429 and 111.7 and 109.2 and 119.2 and 125.6 and 130.3 and 102.2 and 104.4 and 74.72 and 87.31 and 77.74 and 72.45 and 127.9 and 91.64 and 101.7 and 3.856 and 113.4 and 59.09 | 4.242 cm and 2.654 cm and 0.282 cm and 3.737 cm and 3.653 cm and 3.988 cm and 4.202 cm and 4.361 cm and 3.42 cm and 3.494 cm and 2.5 cm and 2.921 cm and 2.601 cm and 2.424 cm and 4.28 cm and 3.066 cm and 3.403 cm and 0.129 cm and 3.794 cm and 1.977 cm | 70.03 and 65.16 and 32.16 and 67.4 and 20.77 and 47.64 | 2.343 cm and 2.18 cm and 1.076 cm and 2.255 cm and 0.695 cm and 1.594 cm | 64.32 and 82.41 and 69.91 and 82.88 and 64.47 and 34.82 and 79.21 and 80.49 and 78.28 and 63.37 and 57.96 and 45.82 and 15.99 and 51.14 and 20.03 and 32.64 | 2.152 cm and 2.757 cm and 2.339 cm and 2.773 cm and 2.157 cm and 1.165 cm and 2.65 cm and 2.693 cm and 2.619 cm and 2.12 cm and 1.939 cm and 1.533 cm and 0.535 cm and 1.711 cm and 0.67 cm and 1.092 cm | 33.06 and 69.91 and 19.58 and 22.27 and 3.796 and 61.99 and 8.578 and 23.43 and 41.58 and 46.33 and 18.05 and 12.76 and 7.532 and 1.225 and 12.64 and 3.945 and 21.19 and 14.91 and 8.907 and 2.032 | 1.106 cm and 2.339 cm and 0.655 cm and 0.745 cm and 0.127 cm and 2.074 cm and 0.287 cm and 0.784 cm and 1.391 cm and 1.55 cm and 0.604 cm and 0.427 cm and 0.252 cm and 0.041 cm and 0.423 cm and 0.132 cm and 0.709 cm and 0.499 cm and 0.298 cm and 0.068 cm | 18.35 and 35.03 and 19.34 and 7.741 and 3.318 and 12.7 and 3.049 and 7.532 and 27.32 and 17.58 and 13.9 and 3.916 and 9.923 and 8.07 and 5.619 and 3.497 and 4.513 and 2.66 and 3.378 and 3.676 | 0.614 cm and 1.172 cm and 0.647 cm and 0.259 cm and 0.111 cm and 0.425 cm and 0.102 cm and 0.252 cm and 0.914 cm and 0.588 cm and 0.465 cm and 0.131 cm and 0.332 cm and 0.27 cm and 0.188 cm and 0.117 cm and 0.151 cm and 0.089 cm and 0.113 cm and 0.123 cm | 2.75 and 4.065 and 1.674 (2×) and 1.644 and 1.315 and 2.331 (2×) and 0.7472 and 2.272 and 2.062 and 1.076 and 1.435 and 2.63 and 2.092 and 1.584 and 5.021 and 1.375 | 0.092 cm and 0.136 cm and 0.056 cm (2×) and 0.055 cm and 0.044 cm and 0.078 cm (2×) and 0.025 cm and 0.076 cm and 0.069 cm and 0.036 cm and 0.048 cm and 0.088 cm and 0.07 cm and 0.053 cm and 0.168 cm and 0.046 cm | did not develop past the point of hypocotyl formation | lack of any chlorophyll containing leaves | 70.5 | > 64
2 | COc1ccc(/C=C2\SC(=O)N(CC(=O)O)C2=O)cc1 [Compound 5, (Z)-2-(5-(4-Methoxybenzylidene)-2,4-dioxothiazolidin-3-yl)acetic Acid] | > 64 | > 64 | > 64 | 82.76 and 96.69 and 73.74 and 70.27 and 71.53 and 139.9 and 115.3 and 146.5 and 77.53 and 88.03 and 73.65 and 65.55 and 78.22 and 74.81 and 104.1 and 65.25 and 3.437 and 81.45 and 65.88 and 72.75 | 2.769 cm and 3.235 cm and 2.467 cm and 2.351 cm and 2.393 cm and 4.682 cm and 3.856 cm and 4.902 cm and 2.594 cm and 2.945 cm and 2.464 cm and 2.193 cm and 2.617 cm and 2.503 cm and 3.482 cm and 2.183 cm and 0.115 cm and 2.725 cm and 2.204 cm and 2.434 cm | 88.38 and 1.793 and 71.56 and 59.48 and 79.48 and 5.948 | 2.957 cm and 0.06 cm and 2.394 cm and 1.99 cm and 2.659 cm and 0.199 cm | 7.413 and 36.02 and 1.315 and 72.21 and 57.81 and 43.67 and 43.88 and 58.91 and 47.85 and 54.64 and 35.81 and 30.88 and 2.78 and 15.18 and 44.24 and 60.59 | 0.248 cm and 1.205 cm and 0.044 cm and 2.416 cm and 1.934 cm and 1.461 cm and 1.468 cm and 1.971 cm and 1.601 cm and 1.828 cm and 1.198 cm and 1.033 cm and 0.093 cm and 0.508 cm and 1.48 cm and 2.027 cm | 17.75 and 24.42 and 18.71 and 21.94 and 21.31 and 20.59 and 21.58 and 22.78 and 6.905 and 15.15 and 6.636 and 15.69 and 16.44 (2×) and 2.062 and 14.11 and 1.016 and 19.97 and 13.33 and 0.8668 | 0.594 cm and 0.817 cm and 0.626 cm and 0.734 cm and 0.713 cm and 0.689 cm and 0.722 cm and 0.762 cm and 0.231 cm and 0.507 cm and 0.222 cm and 0.525 cm and 0.55 cm (2×) and 0.069 cm and 0.472 cm and 0.034 cm and 0.668 cm and 0.446 cm and 0.029 cm | 3.019 and 3.856 and 2.63 and 2.989 (2×) and 4.693 and 3.049 and 0.3886 and 5.021 and 2.541 and 2.451 and 12.37 and 5.051 and 4.812 and 3.497 and 2.361 and 1.225 and 2.272 and 0.8668 and 0.4185 | 0.101 cm and 0.129 cm and 0.088 cm and 0.1 cm (2×) and 0.157 cm and 0.102 cm and 0.013 cm and 0.168 cm and 0.085 cm and 0.082 cm and 0.414 cm and 0.169 cm and 0.161 cm and 0.117 cm and 0.079 cm and 0.041 cm and 0.076 cm and 0.029 cm and 0.014 cm | 0.807 and 0.9565 (3×) and 0.5978 and 2.72 and 0.4185 (2×) and 0.7472 and 0.9266 and 0.2391 and 0.3587 and 0.8668 and 1.375 and 1.315 and 3.348 and 1.853 and 0.9864 | 0.027 cm and 0.032 cm (3×) and 0.02 cm and 0.091 cm and 0.014 cm (2×) and 0.025 cm and 0.031 cm and 0.008 cm and 0.012 cm and 0.029 cm and 0.046 cm and 0.044 cm and 0.112 cm and 0.062 cm and 0.033 cm | did not develop past the point of hypocotyl formation | lack of any chlorophyll containing leaves | 46.9 | –

— patent US20200068890A1 (Person to Whom the Inventor is Obligated to Assign, priority 2017, published 2020)
